Results as given in patent US8729017B2 (priority 2011, dated 2014).
Numbered stars: 1 amine (or outer) side, 2 acyl side, 3 side chain; on linkers, the order of the positions; unused ones are H or OH. Square brackets hold non-standard residues; d marks the D form. Side chains are listed from the residue outwards. Peptide text beside a SMILES is read from it. * marks the point of attachment. γGlu = O=C(O)[C@H](CCC(=O)[*:2])N[*:1]; Palmitoyl = CCCCCCCCCCCCCCCC(=O)*; Orn = NCCC[C@H](N)C(=O)O; Aib = CC(C)(N)C(=O)O

Tests used:
Type in all cases: cell-based
[1] = biological target: T1, glucagon receptor (Homo sapiens, UniProt P47871); experiment: cAMP induction, firefly luciferase reporter assay in HEK293 cells co-transfected with the glucagon receptor; details: HEK293 cells, cAMP-responsive luciferase reporter, 5 hours incubation
T1 construct: expressed in transfected cells; host or cells: HEK293
T1 sequence (P47871 26-477, species assumed): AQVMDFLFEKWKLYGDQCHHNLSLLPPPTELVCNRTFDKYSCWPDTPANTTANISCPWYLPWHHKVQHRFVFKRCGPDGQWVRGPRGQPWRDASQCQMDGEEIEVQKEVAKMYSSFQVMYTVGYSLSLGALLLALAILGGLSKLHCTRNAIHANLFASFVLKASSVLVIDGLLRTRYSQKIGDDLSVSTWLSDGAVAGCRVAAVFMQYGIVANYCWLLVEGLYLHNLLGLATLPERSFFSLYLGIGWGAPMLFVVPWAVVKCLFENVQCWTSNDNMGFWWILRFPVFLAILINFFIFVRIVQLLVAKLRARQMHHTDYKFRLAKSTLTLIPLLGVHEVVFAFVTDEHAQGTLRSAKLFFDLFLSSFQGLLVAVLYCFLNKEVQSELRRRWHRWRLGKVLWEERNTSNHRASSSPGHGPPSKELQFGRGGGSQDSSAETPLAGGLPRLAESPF
Description: (§1) The ability of each peptide to induce cAMP was measured in a firefly luciferase-based reporter assay. […] At the end of the incubation, 100 μL of LucLite luminescence substrate reagent (Perkin Elmer, Wellesley, Mass.) were added to each well. […] In some instances, the in vitro agonist activity at the GIP receptor was also tested.

[2] = biological target: T2, GLP-1 receptor (Homo sapiens, UniProt P43220); experiment: cAMP induction, firefly luciferase reporter assay in HEK293 cells co-transfected with the GLP-1 receptor; details: HEK293 cells, cAMP-responsive luciferase reporter, 5 hours incubation
T2 construct: expressed in transfected cells; host or cells: HEK293
T2 sequence (P43220 24-463): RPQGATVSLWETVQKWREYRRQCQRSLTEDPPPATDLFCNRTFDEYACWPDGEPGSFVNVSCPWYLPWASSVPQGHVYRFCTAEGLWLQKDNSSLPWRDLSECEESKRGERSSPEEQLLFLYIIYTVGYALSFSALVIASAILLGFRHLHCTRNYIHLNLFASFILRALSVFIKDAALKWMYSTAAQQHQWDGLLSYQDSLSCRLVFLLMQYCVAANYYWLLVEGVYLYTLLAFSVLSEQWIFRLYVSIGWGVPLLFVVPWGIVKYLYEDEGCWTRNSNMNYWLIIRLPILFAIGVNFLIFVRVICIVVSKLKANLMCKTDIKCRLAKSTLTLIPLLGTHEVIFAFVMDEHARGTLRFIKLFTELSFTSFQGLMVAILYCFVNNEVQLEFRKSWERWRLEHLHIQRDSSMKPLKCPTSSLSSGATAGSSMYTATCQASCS
Description: as §1

[3] = biological target: T3, GIP receptor (Homo sapiens, UniProt P48546); experiment: in vitro agonist activity at the GIP receptor (cAMP luciferase reporter, HEK293 cells); details: in vitro agonist activity; read-out: EC50 (nM) at GIP receptor
T3 construct: expressed in transfected cells; host or cells: HEK293
T3 sequence (P48546 22-466): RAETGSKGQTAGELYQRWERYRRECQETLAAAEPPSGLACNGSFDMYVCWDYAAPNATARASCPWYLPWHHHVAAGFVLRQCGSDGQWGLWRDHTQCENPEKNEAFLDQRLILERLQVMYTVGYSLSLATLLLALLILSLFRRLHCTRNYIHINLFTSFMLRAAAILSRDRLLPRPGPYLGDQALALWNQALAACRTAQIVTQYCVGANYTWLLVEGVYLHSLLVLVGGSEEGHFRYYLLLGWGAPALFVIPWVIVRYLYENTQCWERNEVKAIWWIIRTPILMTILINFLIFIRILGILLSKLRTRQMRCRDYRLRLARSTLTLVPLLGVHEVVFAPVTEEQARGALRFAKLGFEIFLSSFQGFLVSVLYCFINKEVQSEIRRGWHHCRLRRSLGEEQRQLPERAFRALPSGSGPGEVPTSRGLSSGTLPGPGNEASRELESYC
Description: as §1, with “It is understood that a lower EC50 indicates higher activity or potency at the receptor. […] The” for “The”

Which EC50 [1] does the source give for `CCCCCCCCCCCCCCCC(=O)NCCCC[C@H](NC(=O)[C@H](CC(=O)O)NC(=O)[C@H](CO)NC(=O)[C@@H](NC(=O)[C@H](Cc1ccccc1)NC(=O)[C@@H](NC(=O)CNC(=O)[C@H](CCC(N)=O)NC(=O)C(C)(C)NC(=O)[C@@H](N)Cc1c[nH]cn1)[C@@H](C)O)[C@@H](C)O)C(=O)N[C@@H](CO)C(=O)N[C@@H](CCCCN)C(=O)N[C@@H](Cc1ccc(O)cc1)C(=O)N[C@@H](CC(C)C)C(=O)N[C@@H](CC(=O)O)C(=O)N[C@@H](CO)C(=O)N[C@@H](CCCNC(=N)N)C(=O)N[C@@H](CCCNC(=N)N)C(=O)N[C@@H](C)C(=O)NC(C)(C)C(=O)N[C@@H](CC(=O)O)C(=O)N[C@@H](Cc1ccccc1)C(=O)N[C@H](C(=O)N[C@@H](CCC(N)=O)C(=O)N[C@@H](Cc1c[nH]c2ccccc12)C(=O)N[C@@H](CC(C)C)C(=O)N[C@@H](CCSC)C(=O)N[C@@H](CC(N)=O)C(=O)N[C@H](C(N)=O)[C@@H](C)O)C(C)C` [compound 58] (H-H[Aib]QGTFTSDK(Palmitoyl)SKYLDSRRA[Aib]DFVQWLMNT-NH2) here?
The EC50 was 0.09 nM.

And the EC50 [2]?
Its EC50 is 0.025 nM.

And the EC50 [3]?
The EC50 was 35.7 nM.

`CCCCCCCCCCCCCCCC(=O)NCCCC[C@H](NC(=O)[C@H](CC(=O)O)NC(=O)[C@H](CO)NC(=O)[C@@H](NC(=O)[C@H](Cc1ccccc1)NC(=O)[C@@H](NC(=O)CNC(=O)[C@H](CCC(N)=O)NC(=O)C(C)(C)NC(=O)[C@@H](N)Cc1c[nH]cn1)[C@@H](C)O)[C@@H](C)O)C(=O)N[C@@H](CO)C(=O)N[C@@H](CCCCN)C(=O)N[C@@H](Cc1ccc(O)cc1)C(=O)N[C@@H](CC(C)C)C(=O)N[C@@H](CC(=O)O)C(=O)N[C@@H](CCC(=O)O)C(=O)N[C@@H](CCCNC(=N)N)C(=O)N[C@@H](CCCNC(=N)N)C(=O)N[C@@H](C)C(=O)NC(C)(C)C(=O)N[C@@H](CC(=O)O)C(=O)N[C@@H](Cc1ccccc1)C(=O)N[C@H](C(=O)N[C@@H](CCC(N)=O)C(=O)N[C@@H](Cc1c[nH]c2ccccc12)C(=O)N[C@@H](CC(C)C)C(=O)N[C@@H](CCSC)C(=O)N[C@@H](CC(N)=O)C(=O)N[C@H](C(N)=O)[C@@H](C)O)C(C)C` [compound 59] (H-H[Aib]QGTFTSDK(Palmitoyl)SKYLDERRA[Aib]DFVQWLMNT-NH2) was tested. Which EC50 [1] did it give?
The EC50 was 0.051 nM.

And the EC50 [2]?
Its EC50 is 0.01 nM.

What about the EC50 [3] of the same compound?
The EC50 was 7.48 nM.

Which EC50 [1] does the source give for `CCCCCCCCCCCCCCCC(=O)N[C@@H](CCC(=O)N[C@@H](CCC(=O)NCCCC[C@H](NC(=O)[C@H](CC(=O)O)NC(=O)[C@H](CO)NC(=O)[C@@H](NC(=O)[C@H](Cc1ccccc1)NC(=O)[C@@H](NC(=O)CNC(=O)[C@H](CCC(N)=O)NC(=O)C(C)(C)NC(=O)[C@@H](N)Cc1c[nH]cn1)[C@@H](C)O)[C@@H](C)O)C(=O)N[C@@H](CO)C(=O)N[C@@H](CCCCN)C(=O)N[C@@H](Cc1ccc(O)cc1)C(=O)N[C@@H](CC(C)C)C(=O)N[C@@H](CC(=O)O)C(=O)NC(C)(C)C(=O)N[C@@H](CCCNC(=N)N)C(=O)N[C@@H](C)C(=O)N[C@@H](C)C(=O)N[C@@H](CCC(N)=O)C(=O)N[C@@H](CC(=O)O)C(=O)N[C@@H](Cc1ccccc1)C(=O)N[C@H](C(=O)N[C@@H](CCC(N)=O)C(=O)N[C@@H](Cc1c[nH]c2ccccc12)C(=O)N[C@@H](CC(C)C)C(=O)N[C@@H](CCSC)C(=O)N[C@@H](CCCCN)C(=O)NCC(=O)N[C@@H](CCCNC(=N)N)C(=O)NCC(=O)O)C(C)C)C(=O)O)C(=O)O` [compound 31] (H-H[Aib]QGTFTSDK([γGlu-γGlu-Palmitoyl])SKYLD[Aib]RAAQDFVQWLMKGRG-OH; N-terminus assumed) here?
The EC50 was 0.016 nM.

And the EC50 [2]?
Its EC50 is 0.007 nM.

And the EC50 [3]?
Its EC50 is 2.34 nM.

How did the EC50 [1] turn out when `CCCCCCCCCCCCCCCC(=O)N[C@@H](CCC(=O)N[C@@H](CCC(=O)NCCCC[C@H](NC(=O)[C@H](CC(=O)O)NC(=O)[C@H](CO)NC(=O)[C@@H](NC(=O)[C@H](Cc1ccccc1)NC(=O)[C@@H](NC(=O)CNC(=O)[C@H](CCC(N)=O)NC(=O)C(C)(C)NC(=O)[C@@H](N)Cc1c[nH]cn1)[C@@H](C)O)[C@@H](C)O)C(=O)N[C@@H](CO)C(=O)N[C@@H](CCCCN)C(=O)N[C@@H](Cc1ccc(O)cc1)C(=O)N[C@@H](CC(C)C)C(=O)N[C@@H](CC(=O)O)C(=O)NC(C)(C)C(=O)N[C@@H](CCCNC(=N)N)C(=O)N[C@@H](C)C(=O)N[C@@H](C)C(=O)N[C@@H](CCC(N)=O)C(=O)N[C@@H](CC(=O)O)C(=O)N[C@@H](Cc1ccccc1)C(=O)N[C@H](C(=O)N[C@@H](CCC(N)=O)C(=O)N[C@@H](Cc1c[nH]c2ccccc12)C(=O)N[C@@H](CC(C)C)C(=O)N[C@@H](CCSC)C(=O)N[C@@H](CCCN)C(=O)N[C@H](C(=O)N[C@@H](CCCN)C(=O)N[C@@H](CCC(=O)O)C(=O)O)[C@@H](C)O)C(C)C)C(=O)O)C(=O)O` [compound 33] (H-H[Aib]QGTFTSDK([γGlu-γGlu-Palmitoyl])SKYLD[Aib]RAAQDFVQWLM[Orn]T[Orn]E-OH; N-terminus assumed) was run?
Its EC50 is 0.023 nM.

What about the EC50 [2] of the same compound?
Its EC50 is 0.019 nM.

What about the EC50 [3] of the same compound?
Its EC50 is 3.96 nM.
